From patent US7049437B2, “Synthetic process and crystal form of condensed imidazopyridine derivatives” (Shionogi & Co., Ltd., priority 2000, dated 2006)
Structures can show the parent of a compound that is named as a salt.

Experiments:
[1] = Stability to heat (crystals kept sealed at 40° C., relative humidity 75%); format: physicochemical; conditions: relative humidity of 75%, 6 months, sealed glass container, phosphate monohydrate
Description: Prism crystals and needle crystals of Compound (Ia) were used for samples. About 25 mg of each crystal was put in a small glass container with polyethylene cap. Containers were capped, sealed with PARAFILM and kept at 40° C., relative humidity of 75% for 6 months.

[2] = Stability to light (fluorescent lamp exposure; appearance and HPLC remaining rate); format: physicochemical; conditions: for appearance / remaining rate (%) / appearance change under light exposure: phosphate monohydrate; for remaining rate (%): HPLC content vs reference kept at −20° C.; for appearance change under light exposure: summary of Table 2
Description: In the following Experiments, contents of Compound (I) were determined by HPLC under the following conditions. • Device: WATERS 510, 481, 712 WISP, 741, FD20A or WATERS 510, 486, 712 WISP, 741, FD20A • Column: YMC-packed column AM-302 S-5 120A ODS (4.6 mm φ×150 mm) • Column temperature: room temperature • Mobile phase: methanol/water/TFA=200/800/1 (v/v) • Flow rate: 1.0 ml/min • Wave length: 230 nm • Concentration: 5–85 μg/ml • Injection Volume: 15 μl
After samples were prepared in the same manner of Experiment 1 and sealed, they were kept under 1800 Lux exposure (16 hours exposure per day of a fluorescent lamp, 28800 Lux*hr/day) or under 10000 Lux exposure (continuous exposure of a fluorescent lamp, 240000 Lux*hr/day, average temperature 30±3° C.). As a standard reference sample, each of crystals was put in a sealed container and kept at −20° C. The content of crystals were determined by the absolute calibration curve method using HPLC under the above conditions.

appearance transition [1]	appearance ([2]; 1800 Lux (16 hours exposure per day), 1 month)	remaining rate (%) ([2]; 1800 Lux, 1 month)	remaining rate (%) ([2]; 1800 Lux, 2 months)	remaining rate (%) ([2]; 1800 Lux, 3 months)	remaining rate (%) ([2]; 1800 Lux, 4 months)	appearance ([2]; 10000 Lux (continuous exposure, 30±3° C.), 1 week)	appearance ([2]; 10000 Lux (continuous exposure, 30±3° C.), 3 weeks)	remaining rate (%) ([2]; 10000 Lux, 1 week)	remaining rate (%) ([2]; 10000 Lux, 2 weeks)	remaining rate (%) ([2]; 10000 Lux, 3 weeks)	remaining rate under light exposure ([2]; after 3 months)	appearance change under light exposure [2]	appearance ([2]; 1800 Lux (16 hours exposure per day), 3 months)	appearance ([2]; 10000 Lux (continuous exposure, 30±3° C.), 2 weeks)	melting point [°C]	Compound
changed its color to pale yellow	± or +	98.6	98.3	96.9	97.0	± or +	+ or ++	99.3	98.0	97.4	decreased	changed the color to yellow				c1cc(-c2nc3c4c(ncc3[nH]2)CCOC4)no1 [Needle crystals, 2-(3-isoxazolyl)-3,6,7,9-tetrahydroimidazo[4,5-d]pyrano[4,3-b]pyridine phosphate monohydrate]
not observed appearance transition		100.0	99.9	100.1	100.1			99.5	99.7	99.2		scarcely changed appearance	− or ±	± or +		c1cc(-c2nc3c4c(ncc3[nH]2)CCOC4)no1 [Prism crystals, 2-(3-isoxazolyl)-3,6,7,9-tetrahydroimidazo[4,5-d]pyrano[4,3-b]pyridine phosphate monohydrate]
															234 to 236	c1cc(-c2nc3c4c(ncc3[nH]2)CCOC4)no1 (as salt: phosphate) (hydrate or solvate) [Needle crystals, 2-(3-isoxazolyl)-3,6,7,9-tetrahydroimidazo[4,5-d]pyrano[4,3-b]pyridine phosphate monohydrate]
															> 300	c1cc(-c2nc3c4c(ncc3[nH]2)CCOC4)no1 (hydrate or solvate) [Example 1, 2-(3-isoxazolyl)-3,6,7,9-tetrahydroimidazo[4,5-d]pyrano[4,3-b]pyridine]
